Columns and labels:
Assay type in all cases: in vivo
[1] = system: soybean (Glycine max var. Winchester); experiment: Preemergence herbicidal activity, soybean; settings: Rate of Application 0.3 Kg/Ha, examined after 12-17 days
[2] = system: wheat (Triticum aestivum var. Lew); experiment: Preemergence herbicidal activity, wheat; settings: Rate of Application 0.3 Kg/Ha, examined after 12-17 days
[3] = system: field corn (Zea mays var. Pioneer 3732); experiment: Preemergence herbicidal activity, corn; settings: Rate of Application 0.3 Kg/Ha, examined after 12-17 days
[4] = system: velvetleaf (Abutilon theophrasti); experiment: Preemergence herbicidal activity, velvetleaf; settings: Rate of Application 0.3 Kg/Ha, examined after 12-17 days
[5] = system: morningglory (Ipomea lacunosa or Ipomea hederacea); experiment: Preemergence herbicidal activity, morningglory; settings: Rate of Application 0.3 Kg/Ha, examined after 12-17 days
[6] = system: common cocklebur (Xanthium strumarium L.); experiment: Preemergence herbicidal activity, cocklebur; settings: Rate of Application 0.3 Kg/Ha, examined after 12-17 days
[7] = system: blackgrass (Aloepecurus myosuroides); experiment: Preemergence herbicidal activity, blackgrass; settings: Rate of Application 0.3 Kg/Ha, examined after 12-17 days
[8] = system: green foxtail (Setaria viridis); experiment: Preemergence herbicidal activity, green foxtail; settings: Rate of Application 0.3 Kg/Ha, examined after 12-17 days
[9] = system: Johnsongrass (Sorghum halepense); experiment: Preemergence herbicidal activity, johnsongrass; settings: Rate of Application 0.3 Kg/Ha, examined after 12-17 days
[10] = system: soybean (Glycine max var. Winchester); experiment: Postemergence herbicidal activity, soybean; settings: rate of application 0.3 Kg/Ha, rated after 12-17 days
[11] = system: wheat (Triticum aestivum var. Lew); experiment: Postemergence herbicidal activity, wheat; settings: rate of application 0.3 Kg/Ha, rated after 12-17 days
[12] = system: field corn (Zea mays var. Pioneer 3732); experiment: Postemergence herbicidal activity, corn; settings: rate of application 0.3 Kg/Ha, rated after 12-17 days
[13] = system: velvetleaf (Abutilon theophrasti); experiment: Postemergence herbicidal activity, velvetleaf; settings: rate of application 0.3 Kg/Ha, rated after 12-17 days
[14] = system: morningglory (Ipomea lacunosa or Ipomea hederacea); experiment: Postemergence herbicidal activity, morningglory; settings: rate of application 0.3 Kg/Ha, rated after 12-17 days
[15] = system: common cocklebur (Xanthium strumarium L.); experiment: Postemergence herbicidal activity, cocklebur; settings: rate of application 0.3 Kg/Ha, rated after 12-17 days
[16] = system: blackgrass (Aloepecurus myosuroides); experiment: Postemergence herbicidal activity, blackgrass; settings: rate of application 0.3 Kg/Ha, rated after 12-17 days
Procedure: The benzofused heterocyclic compounds of this invention were tested for pre- and postemergence herbicidal activity using a variety of crops and weeds. The test plants included soybean (Glycine max var. Winchester), field corn (Zea mays var. Pioneer 3732), wheat (Triticum aestivum var. Lew), morningglory (Ipomea lacunosa or Ipomea hederacea), velvetleaf (Abutilon theophrasti), green foxtail (Setaria viridis), Johnsongrass (Sorghum halepense), blackgrass (Aloepecurus myosuroides), common chickweed (Stellaria media), and common cocklebur (Xanthium strumarium L.).
For preemergence testing, two disposable fiber flats (8 cm×15 cm×25 cm) for each rate of application of each candidate herbicide were filled to an approximate depth of 6.5 cm with steam-sterilized sandy loam soil. The soil was leveled and impressed with a template to provide five evenly spaced furrows 13 cm long and 0.5 cm deep in each flat. Seeds of soybean, wheat, corn, green foxtail, and johnsongrass were planted in the furrows of the first flat, and seeds of velvetleaf, morningglory, common chickweed, cocklebur, and blackgrass were planted in the furrows of the second flat. The five-row template was employed to firmly press the seeds into place. A topping soil of equal portions of sand and sandy loam soil was placed uniformly on top of each flat to a depth of approximately 0.5 cm. Flats for postemergence testing were prepared in the same manner except that they were planted 9-14 days prior to the preemergence flats and were placed in a greenhouse and watered, thus allowing the seeds to germinate and the foliage to develop.
In both pre- and postemergence tests, a stock solution of the candidate herbicide was prepared by dissolving 0.27 g of the compound in 20 mL of water/acetone (50/50) containing 0.5% v/v sorbitan monolaurate. For an application rate of 3000 g/ha of herbicide a 10 mL portion of the stock solution was diluted with water/acetone (50/50) to 45 mL.
The preemergence flats were initially subjected to a light water spray. The four flats were placed two by two along a conveyor belt (i.e., the two preemergence followed by the two postemergence flats). The conveyor belt fed under a spray nozzle mounted about ten inches above the post-emergent foliage. The preemergent flats were elevated on the belt so that the soil surface was at the same level below the spray nozzle as the foliage canopy of the postemergent plants. The spray of herbicidal solution was commenced and once stabilized, the flats were passed under the spray at a speed to receive a coverage equivalent of 100 L/ha. At this coverage the application rates are those shown in the above table for the individual herbicidal solutions. The preemergence flats were watered immediately thereafter, placed in the greenhouse and watered regularly at the soil surface. The postemergence flats were immediately placed in the green-house and not watered until 24 hours after treatment with the test solution. Thereafter they were regularly watered at ground level. After 12-17 days the plants were examined and the phytotoxicity data were recorded.
Phytotoxicity data were taken as percent control. Percent control was determined by a method similar to the 0 to 100 rating system disclosed in “Research Methods in Weed Science,” 2nd ed., B. Truelove, Ed.; Southern Weed Science Society; Auburn University, Auburn, Ala., 1977.

[17] = system: green foxtail (Setaria viridis); experiment: Postemergence herbicidal activity, green foxtail; settings: rate of application 0.3 Kg/Ha, rated after 12-17 days
[18] = system: Johnsongrass (Sorghum halepense); experiment: Postemergence herbicidal activity, johnsongrass; settings: rate of application 0.3 Kg/Ha, rated after 12-17 days

Compound | PREEMERGENCE HERBICIDAL ACTIVITY (% CONTROL) SOY [1] [%] | PREEMERGENCE HERBICIDAL ACTIVITY (% CONTROL) WHT [2] [%] | PREEMERGENCE HERBICIDAL ACTIVITY (% CONTROL) CRN [3] [%] | PREEMERGENCE HERBICIDAL ACTIVITY (% CONTROL) ABUTH [4] [%] | PREEMERGENCE HERBICIDAL ACTIVITY (% CONTROL) IPOSS [5] [%] | PREEMERGENCE HERBICIDAL ACTIVITY (% CONTROL) XANPE [6] [%] | PREEMERGENCE HERBICIDAL ACTIVITY (% CONTROL) ALOMY [7] [%] | PREEMERGENCE HERBICIDAL ACTIVITY (% CONTROL) SETVI [8] [%] | PREEMERGENCE HERBICIDAL ACTIVITY (% CONTROL) SORHA [9] [%] | Postemergence herbicidal activity (% control) SOY [10] [%] | Postemergence herbicidal activity (% control) WHT [11] [%] | Postemergence herbicidal activity (% control) CRN [12] [%] | Postemergence herbicidal activity (% control) ABUTH [13] [%] | Postemergence herbicidal activity (% control) IPOSS [14] [%] | Postemergence herbicidal activity (% control) XANPE [15] [%] | Postemergence herbicidal activity (% control) ALOMY [16] [%] | Postemergence herbicidal activity (% control) SETVI [17] [%] | Postemergence herbicidal activity (% control) SORHA [18] [%]
Cn1c(C(F)(F)F)cc(=O)n(-c2c(F)cc(Cl)c3nc(Cc4ccc(Cl)cc4)[nH]c23)c1=O [Compound 383] | 80 | 40 | 20 | 100 | 60 | 70 | 80 | 75 | 55 | 95 | 40 | 95 | 100 | 95 | 100 | 60 | 95 | 70
Cn1c(C(F)(F)F)cc(=O)n(-c2c(F)cc(Cl)c3nc(Cc4cccc(Cl)c4)[nH]c23)c1=O [Compound 382] | 60 | 45 | 30 | 100 | 70 | 60 | 90 | 95 | 80 | 80 | 40 | 100 | 100 | 100 | 100 | 80 | 90 | 80
Cn1c(C(F)(F)F)cc(=O)n(-c2c(F)cc(Cl)c3nc(Cc4ccccc4Cl)[nH]c23)c1=O [Compound 381] | 100 | 40 | 80 | 100 | 100 | 100 | 90 | 100 | 80 | 95 | 40 | 95 | 100 | 100 | 100 | 100 | 100 | 100
Cn1c(C(F)(F)F)cc(=O)n(-c2c(F)cc(Cl)c3nc(CCc4ccccc4)[nH]c23)c1=O [Compound 379] | 100 | 50 | 70 | 100 | 100 | 100 | 80 | 100 | 95 | 95 | 80 | 100 | 100 | 100 | 100 | 70 | 100 | 100

From patent US6352958B1, “Cycloimido-substituted benzofused heterocyclic herbicides” (FMC Corporation, priority 1997, dated 2002)
